Reference: patent US10981911B2, “Imidazopyrrolopyridine as inhibitors of the JAK family of kinases” (Janssen Pharmaceutica NV, priority 2016, dated 2021)

Key:
Format in all cases: biochemical
JAK2-JH1JH2 = JAK2-JH1JH2 (Homo sapiens (Human), UniProt O60674); assay: Enzymatic inhibition assay (RapidFire HTMS), JAK2; conditions: 30 μM ATP, 40 μM substrate
Summary of the method: (§1)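 Quenched with 0.5% TFA plus internal-standard peptide; phosphorylated product quantified by RapidFire C4 SPE–ESI-MS, 11-point 1:3 or 1:4 dilutions in duplicate.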

JAK1-JH1JH2 = JAK1-JH1JH2 (Homo sapiens (Human), UniProt P23458); assay: Enzymatic inhibition assay (RapidFire HTMS), JAK1; conditions: 12.5 μM ATP, 200 μM substrate; read-out: JAK1-JH2JH1 IC50
Sequence of JAK1-JH1JH2 (P23458 574-1154): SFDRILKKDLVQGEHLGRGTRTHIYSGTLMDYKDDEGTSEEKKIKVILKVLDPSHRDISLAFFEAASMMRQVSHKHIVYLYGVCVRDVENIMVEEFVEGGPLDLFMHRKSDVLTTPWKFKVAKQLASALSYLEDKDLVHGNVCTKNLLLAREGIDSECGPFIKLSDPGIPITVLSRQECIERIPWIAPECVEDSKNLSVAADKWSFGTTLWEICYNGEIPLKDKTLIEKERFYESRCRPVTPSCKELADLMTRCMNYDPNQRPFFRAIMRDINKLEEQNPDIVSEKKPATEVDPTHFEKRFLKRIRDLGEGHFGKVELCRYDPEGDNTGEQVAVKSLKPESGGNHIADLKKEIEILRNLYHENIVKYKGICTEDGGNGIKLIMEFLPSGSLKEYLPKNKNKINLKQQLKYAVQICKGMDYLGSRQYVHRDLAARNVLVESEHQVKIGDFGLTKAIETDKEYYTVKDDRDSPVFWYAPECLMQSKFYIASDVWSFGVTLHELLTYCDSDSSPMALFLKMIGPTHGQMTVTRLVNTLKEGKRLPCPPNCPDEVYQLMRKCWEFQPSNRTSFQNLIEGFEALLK
Summary of the method: as §1

Tyk2-JH1JH2 = Tyk2-JH1JH2 (Homo sapiens (Human), UniProt P29597, C1142A/C936A); assay: Enzymatic inhibition assay (RapidFire HTMS), Tyk2; conditions: 50 μM ATP, 200 μM substrate
Sequence of Tyk2-JH1JH2 (P29597 580-1182 C936A/C1142A): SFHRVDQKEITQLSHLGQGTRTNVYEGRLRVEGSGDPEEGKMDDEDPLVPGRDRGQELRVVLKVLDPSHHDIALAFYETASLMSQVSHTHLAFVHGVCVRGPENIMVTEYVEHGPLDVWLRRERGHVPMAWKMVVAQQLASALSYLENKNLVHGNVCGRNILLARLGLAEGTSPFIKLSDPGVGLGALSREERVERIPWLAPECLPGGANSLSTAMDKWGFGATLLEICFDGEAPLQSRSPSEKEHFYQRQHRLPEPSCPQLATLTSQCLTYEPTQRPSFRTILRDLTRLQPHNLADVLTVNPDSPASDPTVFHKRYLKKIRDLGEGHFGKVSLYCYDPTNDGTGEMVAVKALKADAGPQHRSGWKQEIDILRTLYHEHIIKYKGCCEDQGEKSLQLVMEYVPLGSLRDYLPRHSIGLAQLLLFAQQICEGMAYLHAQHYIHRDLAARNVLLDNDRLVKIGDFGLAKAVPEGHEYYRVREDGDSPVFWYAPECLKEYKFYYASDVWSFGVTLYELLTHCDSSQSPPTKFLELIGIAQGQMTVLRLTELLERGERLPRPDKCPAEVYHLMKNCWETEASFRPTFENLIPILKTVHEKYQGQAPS
Summary of the method: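 Compounds were tested in duplicate as 11-point 1:3 or 1:4 DMSO dilutions (≤0.25% DMSO final) in 20 μL reactions at 25 °C for 90 min, with Tyk2 pre-incubated 30 min with 2 mM ATP. Reactions were quenched with TFA plus internal standard peptide, and phosphorylated product was quantified by RapidFire C4 SPE–ESI MS.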

JAK3-JH1JH2 = JAK3-JH1JH2 (Homo sapiens (Human), UniProt P52333); assay: Enzymatic inhibition assay (RapidFire HTMS), JAK3; conditions: 150 μM ATP, 40 μM substrate
Sequence of JAK3-JH1JH2 (P52333 512-1124): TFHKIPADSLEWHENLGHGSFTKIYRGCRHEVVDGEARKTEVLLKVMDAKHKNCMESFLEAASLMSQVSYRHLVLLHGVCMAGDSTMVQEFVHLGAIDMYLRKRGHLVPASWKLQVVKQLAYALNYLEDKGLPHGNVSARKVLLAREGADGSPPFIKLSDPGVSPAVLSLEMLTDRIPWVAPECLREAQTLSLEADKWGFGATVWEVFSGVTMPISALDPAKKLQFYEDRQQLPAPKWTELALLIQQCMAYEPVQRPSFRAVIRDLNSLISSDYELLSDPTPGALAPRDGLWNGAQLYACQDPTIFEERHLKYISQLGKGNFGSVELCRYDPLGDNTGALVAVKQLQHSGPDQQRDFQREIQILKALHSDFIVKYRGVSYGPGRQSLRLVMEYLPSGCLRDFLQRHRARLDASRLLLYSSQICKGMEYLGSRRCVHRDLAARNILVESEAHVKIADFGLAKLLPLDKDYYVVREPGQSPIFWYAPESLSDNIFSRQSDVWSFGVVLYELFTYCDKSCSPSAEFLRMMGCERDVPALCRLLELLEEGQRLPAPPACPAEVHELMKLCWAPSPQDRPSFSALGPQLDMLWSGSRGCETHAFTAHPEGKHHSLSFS
Summary of the method: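 Compounds tested in duplicate over 11-point 1:3 or 1:4 dilution series; no-enzyme wells as negative control. After 45 min at 25 °C, TFA quench with internal standard, and phosphorylated product quantified by RapidFire–QTrap mass spectrometry relative to the uninhibited reaction.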

Sequence of JAK2-JH1JH2 (O60674 532-1132): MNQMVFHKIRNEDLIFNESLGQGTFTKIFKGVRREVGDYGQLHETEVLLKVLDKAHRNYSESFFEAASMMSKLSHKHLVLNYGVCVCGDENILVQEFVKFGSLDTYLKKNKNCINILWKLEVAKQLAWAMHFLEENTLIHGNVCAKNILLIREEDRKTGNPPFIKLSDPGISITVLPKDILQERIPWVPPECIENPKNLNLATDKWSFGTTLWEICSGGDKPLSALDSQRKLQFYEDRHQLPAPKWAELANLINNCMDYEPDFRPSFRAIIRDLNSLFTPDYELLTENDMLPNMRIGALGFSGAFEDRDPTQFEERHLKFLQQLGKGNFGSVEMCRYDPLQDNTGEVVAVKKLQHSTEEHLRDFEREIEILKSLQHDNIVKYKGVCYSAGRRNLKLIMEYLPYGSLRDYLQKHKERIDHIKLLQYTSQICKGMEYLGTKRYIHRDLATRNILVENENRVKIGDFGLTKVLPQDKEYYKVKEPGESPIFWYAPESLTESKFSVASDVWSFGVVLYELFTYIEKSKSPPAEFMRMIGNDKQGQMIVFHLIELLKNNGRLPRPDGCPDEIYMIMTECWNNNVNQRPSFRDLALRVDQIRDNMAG

SMILES	IC50 (JAK2-JH1JH2)	IC50 (JAK1-JH1JH2)	IC50 (Tyk2-JH1JH2)	IC50 (JAK3-JH1JH2)
CCOC(=O)Cn1cc(-c2nc3cnc4[nH]ccc4c3n2[C@H]2CC[C@H](CC#N)CC2)cn1 [Ex. 182, Ethyl 2-(4-(1-((1r,4r)-4-(cyanomethyl)cyclohexyl)-1,6-dihydroimidazo[4,5-d]pyrrolo[2,3-b]pyridin-2-yl)-1H-pyrazol-1-yl)acetate]	24.3 nM	2.8 nM	52.5 nM	276 nM
N#CC[C@H]1CC[C@H](n2c(CO/N=C(\N)C3CC3)nc3cnc4[nH]ccc4c32)CC1 [Ex. 151, (Z*)—N-((1-((1r,4r)-4-(Cyanomethyl)cyclohexyl)-1,6-dihydroimidazo[4,5-d]pyrrolo[2,3-b]pyridin-2-yl)methoxy)cyclopropanecarboximidamide]	10.6 nM	1.4 nM	37.1 nM	103 nM
CS(=O)(=O)c1ccc(-c2ccc(-c3nc4cnc5[nH]ccc5c4n3[C@H]3CC[C@H](CC#N)CC3)cc2)cc1 [Ex. 91, 2-((1r,4r)-4-(2-(4′-(Methylsulfonyl)-[1,1′-biphenyl]-4-yl)imidazo[4,5-d]pyrrolo[2,3-b]pyridin-1(6H)-yl)cyclohexyl)acetonitrile]	30.1 nM	0.4 nM	35.5 nM	851 nM
N#CCC12CCC(n3c(CC(=O)NCC4CCCCC4)nc4cnc5[nH]ccc5c43)(CC1)CC2 [Ex. 208, 2-(1-(4-(Cyanomethyl)bicyclo[2.2.2]octan-1-yl)-1,6-dihydroimidazo[4,5-d]pyrrolo[2,3-b]pyridin-2-yl)-N-(cyclohexylmethyl)acetamide]	442 nM	7.6 nM	714 nM	536 nM
CC(=N)NCc1nc2cnc3[nH]ccc3c2n1[C@H]1CC[C@H](CC#N)CC1 [Ex. 86, N-((1-((1r,4r)-4-(Cyanomethyl)cyclohexyl)-1,6-dihydroimidazo[4,5-d]pyrrolo[2,3-b]pyridin-2-yl)methyl)acetimidamide]	14 nM	0.4 nM	2.6 nM	2270 nM
COCCNC(=O)Cc1nc2cnc3[nH]ccc3c2n1[C@H]1CC[C@H](CC#N)CC1 [Ex. 120, 2-(1-((1r,4r)-4-(Cyanomethyl)cyclohexyl)-1,6-dihydroimidazo[4,5-d]pyrrolo[2,3-b]pyridin-2-yl)-N-(2-methoxyethyl)acetamide]	16 nM	0.7 nM	19.1 nM	228 nM
CC(C)COC(=O)NCc1nc2cnc3[nH]ccc3c2n1[C@H]1CC[C@H](CC#N)CC1 [Ex. 137, Isobutyl ((1-((1r,4r)-4-(Cyanomethyl)cyclohexyl)-1,6-dihydroimidazo[4,5-d]pyrrolo[2,3-b]pyridin-2-yl)methyl)carbamate]	25.1 nM	0.9 nM	14.2 nM	280 nM
CC(C)(C)OCc1nc2cnc3[nH]ccc3c2n1[C@H]1CC[C@H](CC#N)CC1 [Ex. 202, 2-((1r,4r)-4-(2-(tert-Butoxymethyl)imidazo[4,5-d]pyrrolo[2,3-b]pyridin-1(6H)-yl)cyclohexyl)acetonitrile]	50.9 nM	5 nM	50.9 nM	1040 nM
N#CCC12CCC(n3c(CC(=O)Nc4ccccc4)nc4cnc5[nH]ccc5c43)(CC1)CC2 [Ex. 207, 2-(1-(4-(Cyanomethyl)bicyclo[2.2.2]octan-1-yl)-1,6-dihydroimidazo[4,5-d]pyrrolo[2,3-b]pyridin-2-yl)-N-phenylacetamide]	198 nM	6.8 nM	524 nM	375 nM
N#CC[C@H]1CC[C@H](n2c(CC(=O)N3CCC(F)(F)CC3)nc3cnc4[nH]ccc4c32)CC1 [Ex. 107, 2-((1r,4r)-4-(2-(2-(4,4-Difluoropiperidin-1-yl)-2-oxoethyl)imidazo[4,5-d]pyrrolo[2,3-b]pyridin-1(6H)-yl)cyclohexyl)acetonitrile]	18.2 nM	0.6 nM	5.1 nM	142 nM
N#CC[C@H]1CC[C@H](n2c(CC(=O)N3CCC(C#N)CC3)nc3cnc4[nH]ccc4c32)CC1 [Ex. 105, 1-(2-(1-((1r,4r)-4-(Cyanomethyl)cyclohexyl)-1,6-dihydroimidazo[4,5-d]pyrrolo[2,3-b]pyridin-2-yl)acetyl)piperidine-4-carbonitrile]	19.4 nM	0.6 nM	6.9 nM	204 nM
N#CC[C@H]1CC[C@H](n2c(CC(=O)N3CCCCC3)nc3cnc4[nH]ccc4c32)CC1 [Ex. 90, 2-((1r,4r)-4-(2-(2-Oxo-2-(piperidin-1-yl)ethyl)imidazo[4,5-d]pyrrolo[2,3-b]pyridin-1(6H)-yl)cyclohexyl)acetonitrile]	8.1 nM	< 4 nM	~2.4 nM	85 nM
CC(C)(O)Cn1cc(-c2nc3cnc4[nH]ccc4c3n2[C@H]2CC[C@H](CC#N)CC2)cn1 [Ex. 187, 2-((1r,4r)-4-(2-(1-(2-Hydroxy-2-methylpropyl)-1H-pyrazol-4-yl)imidazo[4,5-d]pyrrolo[2,3-b]pyridin-1(6H)-yl)cyclohexyl)acetonitrile]	24.6 nM	1.3 nM	60 nM	180 nM
COCc1nc2cnc3[nH]ccc3c2n1[C@H]1CC[C@H](CC#N)CC1 [Ex. 113, 2-((1r,4r)-4-(2-(Methoxymethyl)imidazo[4,5-d]pyrrolo[2,3-b]pyridin-1(6H)-yl)cyclohexyl)acetonitrile]	10.2 nM	0.6 nM	11.2 nM	322 nM
N#CC[C@H]1CC[C@H](n2c(CNC(=O)NCC3CCCCC3)nc3cnc4[nH]ccc4c32)CC1 [Ex. 155, 1-((1-((1r,4r)-4-(Cyanomethyl)cyclohexyl)-1,6-dihydroimidazo[4,5-d]pyrrolo[2,3-b]pyridin-2-yl)methyl)-3-(cyclohexylmethyl)urea]	48.5 nM	1.3 nM	20.1 nM	368 nM
N#CC[C@H]1CC[C@H](n2c(CC(=O)N3CCC[C@@H]3CO)nc3cnc4[nH]ccc4c32)CC1 [Ex. 149, 2-((1r,4r)-4-(2-(2-((R)-2-(Hydroxymethyl)pyrrolidin-1-yl)-2-oxoethyl)imidazo[4,5-d]pyrrolo[2,3-b]pyridin-1(6H)-yl)cyclohexyl)acetonitrile]	54.4 nM	1.1 nM	13.9 nM	926 nM
CC1(C)CCC(NC(=O)Cc2nc3cnc4[nH]ccc4c3n2[C@H]2CC[C@H](CC#N)CC2)CC1 [Ex. 65, 2-(1-((1r,4r)-4-(Cyanomethyl)cyclohexyl)-1,6-dihydroimidazo[4,5-d]pyrrolo[2,3-b]pyridin-2-yl)-N-(4,4-dimethylcyclohexyl)acetamide]	7 nM	0.3 nM	11.7 nM	81.5 nM

The next compounds have a lower IC50 (JAK2-JH1JH2) than those just listed; values first:

IC50 (JAK2-JH1JH2)	IC50 (JAK1-JH1JH2)	IC50 (Tyk2-JH1JH2)	IC50 (JAK3-JH1JH2)	SMILES
4 nM	0.2 nM	21 nM	99.9 nM	N#CC[C@H]1CC[C@H](n2c(C(=O)N3CCC(O)(c4ccccc4)C3)nc3cnc4[nH]ccc4c32)CC1 (stereo partly drawn) [Ex. 50, 2-((1r,4r)-4-(2-(3-Hydroxy-3-phenylpyrrolidine-1-carbonyl)imidazo[4,5-d]pyrrolo[2,3-b]pyridin-1(6H)-yl)cyclohexyl)acetonitrile]
4 nM	0.6 nM	6.3 nM	68 nM	N#CC[C@H]1CC[C@H](n2c(CC(=O)Nc3cccnc3)nc3cnc4[nH]ccc4c32)CC1 [Ex. 111, 2-(1-((1r,4r)-4-(Cyanomethyl)cyclohexyl)-1,6-dihydroimidazo[4,5-d]pyrrolo[2,3-b]pyridin-2-yl)-N-(pyridin-3-yl)acetamide]
3.4 nM	0.2 nM	3.3 nM	54.2 nM	COC(C)(C)CNC(=O)Cc1nc2cnc3[nH]ccc3c2n1[C@H]1CC[C@H](CC#N)CC1 [Ex. 71, 2-(1-((1r,4r)-4-(Cyanomethyl)cyclohexyl)-1,6-dihydroimidazo[4,5-d]pyrrolo[2,3-b]pyridin-2-yl)-N-(2-methoxy-2-methylpropyl)acetamide]
2.3 nM	0.2 nM	3.8 nM	38 nM	N#CC[C@H]1CC[C@H](n2c(CC(=O)N[C@H]3CC[C@H](O)CC3)nc3cnc4[nH]ccc4c32)CC1 [Ex. 33, 2-(1-((1r,4r)-4-(Cyanomethyl)cyclohexyl)-1,6-dihydroimidazo[4,5-d]pyrrolo[2,3-b]pyridin-2-yl)-N-((1r,4r)-4-hydroxycyclohexyl)acetamide]
2.2 nM	0.3 nM	19.1 nM	57.3 nM	N#CC[C@H]1CC[C@H](n2c(-c3nn[nH]n3)nc3cnc4[nH]ccc4c32)CC1 [Ex. 63, 2-((1r,4r)-4-(2-(2H-Tetrazol-5-yl)imidazo[4,5-d]pyrrolo[2,3-b]pyridin-1(6H)-yl)cyclohexyl)acetonitrile]
2.1 nM	< 4 nM	1.2 nM	24.4 nM	CNC(=O)Cc1nc2cnc3[nH]ccc3c2n1[C@H]1CC[C@H](CC#N)CC1 [Ex. 198, 2-(1-((1r,4r)-4-(Cyanomethyl)cyclohexyl)-1,6-dihydroimidazo[4,5-d]pyrrolo[2,3-b]pyridin-2-yl)-N-methylacetamide]
0.6 nM	0.1 nM	0.9 nM	13.3 nM	N#CC[C@H]1CC[C@H](n2c(CC(=O)Nc3ccc(CO)cc3)nc3cnc4[nH]ccc4c32)CC1 [Ex. 7, 2-(1-((1r,4r)-4-(Cyanomethyl)cyclohexyl)-1,6-dihydroimidazo[4,5-d]pyrrolo[2,3-b]pyridin-2-yl)-N-(4-(hydroxymethyl)phenyl)acetamide]
